Reference: the supplement of paper PMC10331698
± gives the standard deviation of the averaged measurements.

Legend:
Test in all cases: LOEC (log10 uM (lowest observed effect concentration))
[1] = compound: CCN(CCO)S(=O)(=O)C(F)(F)C(F)(F)C(F)(F)C(F)(F)C(F)(F)C(F)(F)C(F)(F)C(F)(F)F [N-Ethyl-N-(2-hydroxyethyl)perfluorooctanesulfonamide]
Procedure: (§1)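 BioMAP Diversity Plus panel in human primary cell co-cultures, 4 concentrations in duplicate blinded samples. Responses are log10 fold change versus DMSO control, processed with tcpl v2.1.0. A hit is called when responses at any concentration exceed the cutoff (the larger of 3*bmad or log10(1.2)); the lowest observed effect concentration (modl_ga, log10 uM) is reported for hits.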

[2] = compound: OCCCC(F)(F)C(F)(F)C(F)(F)C(F)(F)C(F)(F)C(F)(F)C(F)(F)F [7:3 Fluorotelomer alcohol]
Procedure: as §1

Perfluorodecanoic acid = compound: O=C(O)C(F)(F)C(F)(F)C(F)(F)C(F)(F)C(F)(F)C(F)(F)C(F)(F)C(F)(F)C(F)(F)F [Perfluorodecanoic acid]
Procedure: as §1

[3] = compound: OCCC(F)(F)C(F)(F)C(F)(F)C(F)(F)C(F)(F)C(F)(F)F [6:2 Fluorotelomer alcohol]
Procedure: as §1

[4] = compound: FC(F)(F)C(F)(F)C(F)(F)C(F)(F)C(F)(F)CCI [1-Iodo-1H,1H,2H,2H-perfluoroheptane]
Procedure: as §1

[5] = compound: C=CC(=O)OCC(F)(F)C(F)(F)C(F)(F)C(F)(F)C(F)(F)C(F)(F)C(F)(F)F [1H,1H-Perfluorooctyl acrylate]
Procedure: as §1

[6] = compound: C[N+](C)(C)CCCNS(=O)(=O)C(F)(F)C(F)(F)C(F)(F)C(F)(F)C(F)(F)C(F)(F)C(F)(F)C(F)(F)F [Perfluorooctanesulfonamido ammonium iodide]
Procedure: as §1

[7] = compound: O=C(O)C(F)(F)C(F)(F)C(F)(F)C(F)(F)C(F)(F)C(F)(F)C(F)(F)C(F)F [9-H-Perfluorononanoic acid]
Procedure: as §1

[8] = compound: O=S(=O)(O)C(F)(F)C(F)(F)C(F)(F)C(F)(F)C(F)(F)C(F)(F)F [Perfluorohexanesulfonic acid]
Procedure: as §1

[9] = compound: OCC(F)(F)OC(F)(F)C(F)(F)OC(F)(F)CO [1H,1H,8H,8H-Perfluoro-3,6-dioxaoctane-1,8-diol]
Procedure: as §1

[10] = compound: O=C(O)C(F)(F)OC(F)(F)C(F)(F)OC(F)(F)F [Perfluoro-3,6-dioxaheptanoic acid]
Procedure: as §1

[11] = compound: O=C(O)C(F)(F)C(F)(F)C(F)(F)OC(F)(C(F)(F)F)C(F)(F)F [Perfluoro-4-isopropoxybutanoic acid]
Procedure: as §1

Perfluoroheptanoic acid = compound: O=C(O)C(F)(F)C(F)(F)C(F)(F)C(F)(F)C(F)(F)C(F)(F)F [Perfluoroheptanoic acid]
Procedure: as §1

Perfluoro-1-iodohexane = compound: FC(F)(F)C(F)(F)C(F)(F)C(F)(F)C(F)(F)C(F)(F)I [Perfluoro-1-iodohexane]
Procedure: as §1

| Test System | LOEC (log10 uM) [1] | LOEC (log10 uM) [2] | LOEC (log10 uM) (Perfluorodecanoic acid) | LOEC (log10 uM) [3] | LOEC (log10 uM) [6] | other results |
| --- | --- | --- | --- | --- | --- | --- |
| 3C HLADR down | 1.78 | 1.54 ± 0.34 | 1.78 | 1.78 | – | – |
| 3C ICAM1 down | – | 1.78 | 1.78 | 1.78 | – | – |
| 3C MCP1 down | 1.3 | 1.54 ± 0.34 | 1.78 | 1.78 | – | – |
| 3C MIG down | – | 1.78 | 1.78 | 1.78 | – | – |
| 3C Proliferation down | 0.573 ± 0.39 | 1.07 ± 0.32 | 1.78 | 1.78 | 1.78 | LOEC (log10 uM) [4]: 1.78; LOEC (log10 uM) [5]: 1.78 |
| 3C SRB down | 1.07 ± 0.32 | 1.3 | 1.78 | 1.78 | 1.78 | – |
| 3C TissueFactor down | – | 1.54 ± 0.34 | 1.78 | 1.78 | – | – |
| 3C uPAR down | – | 1.78 | 1.78 | 1.78 | – | – |
| 4H Eotaxin3 down | 1.54 ± 0.34 | 1.54 ± 0.34 | 1.78 | – | 1.78 | – |
| 4H Pselectin down | 1.54 ± 0.34 | 1.78 | 1.78 | – | 1.78 | – |
| 4H Pselectin up | – | – | – | – | – | LOEC (log10 uM) [7]: 1.78 |
| BE3C HLADR down | 1.3 | 1.78 | 1.3 | – | 1.78 | LOEC (log10 uM) [7]: 1.07 ± 0.32 |
| BE3C IL8 down | 1.3 | 1.78 | 1.3 | – | 1.54 ± 0.34 | – |
| BE3C IP10 down | 1.3 | 1.78 | 0.845 | – | 1.78 | LOEC (log10 uM) [7]: 1.78 |
| BE3C MMP1 up | 0.845 | – | – | – | 1.78 | LOEC (log10 uM) [4]: 1.54 ± 0.34; LOEC (log10 uM) [7]: 1.78; LOEC (log10 uM) [8]: 1.78 |
| BF4T Eotaxin3 down | – | 1.31 ± 0.66 | 1.3 | – | – | LOEC (log10 uM) [4]: 1.78; LOEC (log10 uM) [7]: 0.845 |
| BF4T ICAM1 down | – | 1.78 | 1.3 | – | – | LOEC (log10 uM) [7]: 1.07 ± 0.32 |
| BF4T MCP1 down | – | 1.54 ± 0.34 | 1.3 | – | – | LOEC (log10 uM) [7]: 0.573 ± 0.39 |
| BF4T PAI1 down | – | 1.78 | 1.3 | – | – | LOEC (log10 uM) [7]: 0.845 |
| BF4T tPA down | – | 1.78 | 1.3 | – | 1.3 | LOEC (log10 uM) [7]: 1.07 ± 0.32 |
| BT Bcell Proliferation up | – | – | 1.78 | – | – | LOEC (log10 uM) [7]: 1.78 |
| BT PBMCCytotoxicity down | – | 1.3 | – | 1.78 | – | – |
| BT PBMCCytotoxicity up | – | – | – | – | – | LOEC (log10 uM) [7]: 1.78 |

| Test System | LOEC (log10 uM) [1] | LOEC (log10 uM) [2] | LOEC (log10 uM) (Perfluorodecanoic acid) | LOEC (log10 uM) [3] | LOEC (log10 uM) [6] | other results |
| --- | --- | --- | --- | --- | --- | --- |
| BT xIL17A down | 1.3 | 1.3 | – | – | 1.78 | – |
| BT xIL17F down | 1.3 | 1.3 | – | – | 1.3 | LOEC (log10 uM) [5]: 1.3 |
| BT xTNFa down | 1.3 | 1.3 | – | 1.78 | 1.54 ± 0.34 | – |
| CASM3C Proliferation down | 1.3 | 1.3 | – | – | – | LOEC (log10 uM) [4]: 1.54 ± 0.34 |
| IMphg CD40 down | – | 1.78 | 1.78 | – | 1.54 ± 0.34 | LOEC (log10 uM) [9]: 1.3 |
| IMphg CD69 down | 1.3 | – | 1.78 | – | 1.3 | – |
| IMphg IL8 up | 1.78 | – | – | – | – | LOEC (log10 uM) [10]: 1.78; LOEC (log10 uM) [11]: 1.78; LOEC (log10 uM) (Perfluoroheptanoic acid): 1.78; LOEC (log10 uM) [7]: 1.78 |
| IMphg IL10 down | – | – | 1.78 | – | 1.3 | LOEC (log10 uM) [7]: 1.78; LOEC (log10 uM) [8]: 1.78 |
| IMphg SRB down | 1.78 | 1.78 | 1.78 | – | 1.78 | – |
| KF3CT IP10 down | 1.3 | 1.54 ± 0.34 | 1.3 | – | 1.78 | – |
| KF3CT MMP9 down | 1.54 ± 0.34 | 1.3 | 1.07 ± 0.32 | – | 1.78 | – |
| KF3CT PAI1 down | 0.845 | 1.3 | 1.3 | – | 1.78 | – |
| LPS CD40 down | – | 1.78 | 1.78 | 1.78 | 1.78 | – |
| LPS IL1a down | 1.3 | – | 1.78 | – | 1.54 ± 0.34 | – |
| LPS IL8 up | – | – | – | – | – | LOEC (log10 uM) [11]: 1.54 ± 0.34; LOEC (log10 uM) [7]: 1.54 ± 0.34 |
| LPS SRB down | 1.54 ± 0.34 | 1.78 | 1.78 | – | 1.78 | – |
| LPS VCAM1 down | 1.78 | 1.54 ± 0.34 | 1.78 | – | 1.78 | – |
| MyoF ACTA1 down | 1.3 | 1.78 | 1.78 | – | 1.3 | LOEC (log10 uM) (Perfluoro-1-iodohexane): 1.3 |
| MyoF CollagenI down | 1.3 | 1.78 | 1.3 | – | 1.78 | LOEC (log10 uM) (Perfluoro-1-iodohexane): 1.78 |
| MyoF CollagenIII down | 1.3 | 1.78 | 1.3 | – | 1.78 | LOEC (log10 uM) (Perfluoro-1-iodohexane): 1.78 |
| MyoF MMP1 up | 1.3 | – | – | – | 1.78 | LOEC (log10 uM) (Perfluoro-1-iodohexane): 1.3 |
| MyoF PAI1 down | – | 1.78 | 1.78 | – | 1.78 | LOEC (log10 uM) (Perfluoro-1-iodohexane): 1.78 |
| MyoF SRB down | 1.3 | 1.78 | 1.54 ± 0.34 | – | 1.78 | LOEC (log10 uM) (Perfluoro-1-iodohexane): 1.3 |

| Test System | LOEC (log10 uM) [1] | LOEC (log10 uM) [2] | LOEC (log10 uM) (Perfluorodecanoic acid) | LOEC (log10 uM) [3] | LOEC (log10 uM) [6] | other results |
| --- | --- | --- | --- | --- | --- | --- |
| MyoF VCAM1 down | 1.3 | 1.78 | 1.54 ± 0.34 | – | 1.78 | LOEC (log10 uM) (Perfluoro-1-iodohexane): 1.54 ± 0.34 |
| SAg CD40 down | 1.78 | 1.78 | 1.78 | – | 1.78 | – |
| SAg PBMCCytotoxicity down | 1.54 ± 0.34 | 1.3 | 1.78 | 1.78 | – | – |
| SAg Proliferation down | 1.3 | 1.3 | 1.78 | 1.78 | 1.78 | – |
| SAg SRB down | 1.3 | 1.78 | 1.78 | – | 1.78 | – |
| hDFCGF CollagenI down | – | 1.3 | – | 1.78 | – | – |
| hDFCGF ICAM1 down | – | 1.3 | 1.78 | 1.78 | – | – |
| hDFCGF IL8 down | – | 1.3 | 1.78 | 1.78 | 1.78 | – |
| hDFCGF IP10 down | 1.07 ± 0.32 | 1.3 | 1.07 ± 0.32 | – | 1.78 | LOEC (log10 uM) [4]: 1.78 |
| hDFCGF ITAC down | 1.07 ± 0.32 | 1.3 | 1.3 | 1.78 | 1.78 | LOEC (log10 uM) [4]: 1.78; LOEC (log10 uM) [7]: 1.54 ± 0.34 |
| hDFCGF MCP1 down | 1.3 | 1.3 | 1.78 | 1.78 | 1.78 | – |
| hDFCGF MCSF down | 1.07 ± 0.32 | 1.3 | 1.3 | – | – | LOEC (log10 uM) [4]: 1.78 |
| hDFCGF MIG down | 1.3 | 1.3 | 1.07 ± 0.32 | 1.78 | – | – |
| hDFCGF MMP1 down | 1.78 | 1.3 | 1.3 | – | – | LOEC (log10 uM) [7]: 1.3 |
| hDFCGF PAI1 down | 1.54 ± 0.34 | 1.3 | 1.54 ± 0.34 | 1.78 | 1.78 | – |
| hDFCGF Proliferation down | 0.573 ± 0.39 | 0.845 | 1.3 | 1.78 | – | LOEC (log10 uM) [4]: 1.3; LOEC (log10 uM) [5]: 1.78 |
| hDFCGF SRB down | 0.573 ± 0.39 | 1.3 | 1.78 | 1.78 | 1.78 | – |
| hDFCGF SRB up | – | – | – | – | – | LOEC (log10 uM) [7]: 1.54 ± 0.34 |
| hDFCGF TIMP1 down | – | 1.3 | 1.78 | 1.78 | – | – |
| hDFCGF TIMP2 down | – | 1.3 | 1.3 | 1.78 | – | – |
| hDFCGF VCAM1 down | 1.54 ± 0.34 | 1.3 | 0.801 ± 0.71 | 1.78 | 1.78 | LOEC (log10 uM) [4]: 1.78 |
